The values that follow come from patent US20260259229A1, “FATIGUE SYNDROME SIGNATURES AND METHODS OF TREATMENT” (The Board of Trustees of the Leland Stanford Junior …, priority 2023, published 2026).

Each structure is given as a SMILES string. “Also recorded” adds a separate entry of the source.

For assay [1], the system named is CD4 T cells. Description: Screening for reversal of oxidative damage: PBMCs treated with ROS inducer, then candidate drug; lipid peroxidation by flow cytometry (FIG. 9B, 9F). Format: cell-based, human. As to conditions: drug after ROS inducer, versus positive control cells treated only with ROS inducer (FIG. 9F). The protocol: FIGS. 9A-9F. Screening assays. (A) To identify drugs that can protect immune cell populations from oxidative stress, PBMCs are treated with candidate drugs (e.g., liproxstatin-1, metformin) for an hour, before treatment with ROS inducer (e.g., cumene […], tert-butyl hydroperoxide). By subsequently labeling cells with metabolic dyes to track oxidative stress parameters, comparisons with immune cells only treated with ROS inducer enable quantification of drugs capacity to protect against oxidative stress and damage in immune cell populations. (B) To identify drugs that can reverse oxidative stress and damage in immune cell populations, PBMCs are treated first with a ROS inducer for 30 minutes to an hour, before subsequent treatment with candidate drugs. By labeling with metabolic dyes and comparing the drug treated immune cell populations to those treated only with ROS inducer, we can quantify the capacity for drugs to reverse oxidative stress and damage in PBMCs. (C) To link these metabolic changes with immune cell function, control and disease PBMCs (e.g., from fatigue-syndrome patients) are labeled with proliferation dyes, upon which T cells are stimulated with anti-CD3/anti-CD28 antibodies and IL-2. By treating PBMCs with drugs identified from methodologies described in 9A and 9B, we can assess how metabolic changes to oxidative stress levels in drugs also modulate functional capacity of donor T cells to proliferate. While flowchart is specific to T cells (e.g., anti-CD3/anti-CD28 stimulation), the core methodology is applicable to other immune cell populations, where changes in immune cells capacity to proliferate can be assessed upon treatment with candidate drugs. (D) Application of methodology to a specific CFS patient is shown, where PBMCs treated with ROS-modulating drugs including N-acetylcysteine, metformin, and liproxstatin-1. Flow cytometry data is shown for CD4 T cells, where the x-axis corresponds to CellTraceViolet (proliferation dye) staining and the y-axis corresponds to total ROS levels. […] (E) Proportion of proliferating T cells are shown for a specific CFS patient (patient 27) along with their […] and […]. […] Lipid peroxidation changes are shown, where higher oxidative damage corresponds to a lower value on the y-axis. Identified drugs include N-acetylcysteine (NAC), metformin, liproxstatin-1, nicotinamide mononucleotide (NMN), oxaloacetate, MitoQ, Abilify, Colchicine, Naltrexone. Although this methodology is shown for CD4 T cells, it is broadly applicable to other immune cell populations (e.g., myeloid cells).
Staining: To stain for mitochondrial parameters, cells were stained with BioTracker ATP-Red Live Cell Dye (Sigma Aldrich), MitoTracker Deep Red FM (ThermoFisher), MitoSpy Green FM (BioLegend). To stain for ROS levels, cells were stained with DCFDA cellular ROS assay kit (abcam), MitoSOX Red Mitochondrial Superoxide detector (ThermoFisher). To stain for glutathione clearance and oxidative damage, cells were stained with ThiolTracker Violet (ThermoFisher), HCS LipidTOX Green Neutral Lipid Stain (ThermoFisher) for lipid droplet levels, and Image-iT™ Lipid Peroxidation Kit, ratiometric lipid peroxidation sensor (ThermoFisher). To capture viability, cells were stained with LIVE/DEAD Fixable Far Red Dead Cell Stain (ThermoFisher).

In assay [2] the test system is CD4 and CD8 T cells (donor PBMCs). Description: T cell proliferation assay: CellTrace Violet dye dilution, PBMCs stimulated with anti-CD3/anti-CD28 antibodies and IL-2, treated with ROS-modulating drugs. Format: cell-based, human. Particulars: for proportion of proliferating T cells, HC and ME-CFS PBMCs (FIG. 15): 100 μM N-acetylcysteine, liproxstatin-1, 5-days post activation; for effect in lowering T cell proliferation in LC female donors: female LC PBMCs (FIG. 16); for effect in reducing T cell hyperproliferation in ME/CFS donors: female ME/CFS donors, p: NAC CD4 0.82, CD8 0.7, metformin CD4 0.041, CD8 0.39, liproxstatin-1 CD4 0.31, CD8 0.18; for reduction in T cell proliferation upon treatment, male ME/CFS: male ME/CFS PBMCs (FIG. 17: 100 μM N-acetylcysteine, 10 μM metformin, 1 μM liproxstatin-1); for proportion of proliferating CD4 T cells upon stimulation: patient 27 (ME/CFS) PBMCs treated at day 0, read 5 days after stimulation, untreated 79.3%.

Assay [3] concerns patients. Particulars: double-blinded phase III studies on >1300 patients, especially among female patients; cited from earlier work.

As for `NC(=O)c1ccc[n+]([C@@H]2O[C@H](COP(=O)([O-])O)[C@@H](O)[C@H]2O)c1` [nicotinamide mononucleotide], the “capacity for reversing oxidative damage (lipid peroxidation changes)” value (shortened to “capacity … (lipid peroxidation changes)”) in assay [1] is on record as “reversing oxidative damage”.

On to `Clc1cccc(CN=C2Nc3ccccc3NC23CCNCC3)c1` [liproxstatin-1], for which the “capacity … (lipid peroxidation changes)” value in assay [1] is “reversing oxidative damage”. Further, in assay [2], the “proportion of proliferating T cells, HC and ME-CFS PBMCs (FIG. 15)” value is “selectively lowers proliferation in ME-CFS and not the HC donors”; the “reduction in T cell proliferation upon treatment, male ME/CFS” value (“reduction … male ME/CFS” for short) is reported as “did not observe any reduction”; the “proportion of proliferating CD4 T cells upon stimulation” value is reported as 64.5%. In assay [2] (5 days post stimulation), the “effect in lowering T cell proliferation in LC female donors” value is “did not show a statistically significant effect” and the “effect in reducing T cell hyperproliferation in ME/CFS donors” value was “did not show a statistically significant effect”.

Regarding `CC(=O)N[C@@H](CS)C(=O)O` [NAC, N-acetylcysteine], the “capacity … (lipid peroxidation changes)” value in assay [1] is “reversing oxidative damage”. In addition, in assay [2], the “proportion of proliferating T cells, HC and ME-CFS PBMCs (FIG. 15)” value is given as “no difference or decrease”; the “reduction … male ME/CFS” value is reported as “did not observe any reduction”; the “proportion of proliferating CD4 T cells upon stimulation” value is reported as 54.3%. In assay [2] (5 days post stimulation), the “effect in reducing T cell hyperproliferation in ME/CFS donors” value is listed as “did not have any effect”.

For `COC1=C(OC)C(=O)C(CCCCCCCCCC[P+](c2ccccc2)(c2ccccc2)c2ccccc2)=C(C)C1=O` [MitoQ], the “capacity … (lipid peroxidation changes)” value in assay [1] is reported as “reversing oxidative damage”.

Take `O=C1CC[C@@]2(O)[C@H]3Cc4ccc(O)c5c4[C@@]2(CCN3CC2CC2)[C@H]1O5` [Naltrexone]: the “capacity … (lipid peroxidation changes)” value in assay [1] was “reversing oxidative damage”.

Take `O=C1CCc2ccc(OCCCCN3CCN(c4cccc(Cl)c4Cl)CC3)cc2N1` [Abilify]: the “capacity … (lipid peroxidation changes)” value in assay [1] is recorded as “reversing oxidative damage”.

Take `COc1cc2c(c(OC)c1OC)-c1ccc(OC)c(=O)cc1[C@@H](NC(C)=O)CC2` [Colchicine]: the “capacity … (lipid peroxidation changes)” value in assay [1] is “reversing oxidative damage”.

In the case of `CN(C)C(=N)N=C(N)N` [metformin], the “capacity … (lipid peroxidation changes)” value in assay [1] is reported as “reversing oxidative damage”. Also, in assay [2] (HC donors, 5 days post stimulation, metformin CD4 p=1, CD8 p=0.69), the “effect on T cell proliferation in healthy controls” value is given as “no effect; also recorded: does not alter proliferation”. In addition, in assay [2] (LC donor PBMCs, metformin treatment (10 μM, FIG. 16B), p=0.31), the “average reduction of CD4 T cell proliferation” value came to 5.2%. Moreover, in assay [2] (LC donor PBMCs, metformin treatment (10 μM, FIG. 16B), p=0.42), the “average reduction of CD8 T cell proliferation” value is 7.6%. Besides, in assay [2] (5 days post stimulation), the “effect in lowering T cell proliferation in LC female donors” value is “smaller and non-statistically significant effect”; the “effect in reducing T cell hyperproliferation in ME/CFS donors” value is reported as “statistically significant effect in reducing CD4 T cell hyperproliferation; also recorded: statistically significant reduction”. In assay [2], the “reduction … male ME/CFS” value is “did not observe any reduction” and the “proportion of proliferating CD4 T cells upon stimulation” value is given as 53.2%. Further, the “reduction of Long COVID incidence” value in assay [3] is 41%.
